Data set [1] is described as follows: Compound cytotoxicity, XTT-based colorimetric assay. It counts as cell-based. The conditions noted are these: human; uninfected MT2 cells, day 4, XTT; read-out: CC50. The essentials:
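Uninfected MT2 cells were treated with compound under the same protocol as the antiviral assay. Viability was read on day 4 with an XTT colorimetric assay, from which CC50 values were derived.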
Background: Tetrazolium dyes change colour on reduction, which living cells bring about.

The subject of data set [2] is recombinant NL4-3 virus (nef section replaced with Renilla luciferase gene) in MT-2 cells. Nature of the data set: HIV cell culture assay (antiviral activity, luciferase readout). It counts as cell-based. The conditions noted are these: Renilla, NL43, MT-2 cells infected for 4-5 days with recombinant NL4-3 Renilla luciferase virus. In outline:
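EC50 was derived by median-effect fitting of Renilla luciferase signal from MT-2 cells. These cells were infected for 4–5 days with NL4-3 reporter virus (nef partly replaced by luciferase; made in 293T cells) in the presence of serially diluted compound. Activity was quantified with a live-cell luciferase substrate.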

As a reminder, the CC50 is the concentration that lowers cell viability or growth by half. In general, EC50 refers to the concentration needed to bring the measured effect to its halfway point. With `COCCCn1nc(NS(C)(=O)=O)c2c(Cl)ccc(-n3c([C@H](Cc4cc(F)cc(F)c4)NC(=O)Cn4nc(C(F)F)c5c4C(F)(F)[C@@H]4C[C@H]54)nc4nc(C5(F)CCC(F)(F)CC5)cc(CN5C[C@@H](C)O[C@@H](C)C5)c4c3=O)c21` (atropisomer, axis not shown; (P)) [Example 600, N-[(1S)-1-[(3P)-3-[4-chloro-3-methanesulfonamido-1-(3-methoxypropyl)-1H-indazol-7-yl]-5-{[(2R,6S)-2,6-dimethylmorpholin-4-yl]methyl}-4-oxo-7-(1,4,4-trifluorocyclohexyl)-3H,4H-pyrido[2,3-d]pyrimidin-2-yl]-2-(3,5-difluorophenyl)ethyl]-2-[(2S,4R)-9-(difluoromethyl)-5,5-difluoro-7,8-diazatricyclo[4.3.0.0^2,^4]nona-1(6),8-dien-7-yl]acetamide], the CC50 at 4 days in data set [1] was more than 20000 pM. Also, the EC50 in data set [2] is 8 pM.

On to `CCNc1cc(C2CCC(F)(F)CC2)nc2nc([C@H](Cc3cc(F)cc(F)c3)NC(=O)Cn3nc(C4CC4)c4c3C[C@@H]3C[C@H]43)n(-c3ccc(Cl)c4c(NS(C)(=O)=O)nn(CCCOC)c34)c(=O)c12` (atropisomer, axis not shown; (P)) [Example 601, N-[(1S)-1-[(3P)-3-[4-chloro-3-methanesulfonamido-1-(3-methoxypropyl)-1H-indazol-7-yl]-7-(4,4-difluorocyclohexyl)-5-(ethylamino)-4-oxo-3H,4H-pyrido[2,3-d]pyrimidin-2-yl]-2-(3,5-difluorophenyl)ethyl]-2-[(2S,4S)-9-cyclopropyl-7,8-diazatricyclo[4.3.0.0^2,^4]nona-1(6),8-dien-7-yl]acetamide], for which, in data set [1], the CC50 at 4 days was more than 20000 pM. Moreover, the EC50 in data set [2] was determined as 8 pM.

As for `COCCCn1nc(NS(C)(=O)=O)c2c(Cl)ccc(-n3c([C@H](Cc4cc(F)cc(F)c4)NC(=O)Cn4nc(C5CC5)c5c4C[C@@H]4C[C@H]54)nc4nc(C5(F)CCC(F)(F)CC5)cc(CN5C[C@@H](C)O[C@@H](C)C5)c4c3=O)c21` (atropisomer, axis not shown; (P)) [Example 602, N-[(1S)-1-[(3P)-3-[4-chloro-3-methanesulfonamido-1-(3-methoxypropyl)-1H-indazol-7-yl]-5-{[(2R,6S)-2,6-dimethylmorpholin-4-yl]methyl}-4-oxo-7-(1,4,4-trifluorocyclohexyl)-3H,4H-pyrido[2,3-d]pyrimidin-2-yl]-2-(3,5-difluorophenyl)ethyl]-2-[(2S,4S)-9-cyclopropyl-7,8-diazatricyclo[4.3.0.0^2,^4]nona-1(6),8-dien-7-yl]acetamide], the CC50 at 4 days in data set [1] was more than 20000 pM. The EC50 in data set [2] came to 17 pM.

In the case of `COCCCn1nc(NS(C)(=O)=O)c2c(Cl)ccc(-n3c([C@H](Cc4cc(F)cc(F)c4)NC(=O)Cn4nc(C5CC5)c5c4C[C@@H]4C[C@H]54)nc4nc(C5CCC(F)(F)CC5)cc(CN5CC(F)(F)C5)c4c3=O)c21` (atropisomer, axis not shown; (P)) [Example 603, N-[(1S)-1-[(3P)-3-[4-chloro-3-methanesulfonamido-1-(3-methoxypropyl)-1H-indazol-7-yl]-5-[(3,3-difluoroazetidin-1-yl)methyl]-7-(4,4-difluorocyclohexyl)-4-oxo-3H,4H-pyrido[2,3-d]pyrimidin-2-yl]-2-(3,5-difluorophenyl)ethyl]-2-[(2S,4S)-9-cyclopropyl-7,8-diazatricyclo[4.3.0.0^2,^4]nona-1(6),8-dien-7-yl]acetamide], the CC50 at 4 days in data set [1] was more than 20000 pM. Also, the EC50 in data set [2] amounted to 4 pM.

Consider `COCCCn1nc(NS(C)(=O)=O)c2c(Cl)ccc(-n3c([C@H](Cc4cc(F)cc(F)c4)NC(=O)Cn4nc(C(F)F)c5c4C(F)(F)[C@@H]4C[C@H]54)nc4nc(C5CCC(F)(F)CC5)cc(CN5CC(OC)C5)c4c3=O)c21` (atropisomer, axis not shown; (P)) [Example 604, N-[(1S)-1-[(3P)-3-[4-chloro-3-methanesulfonamido-1-(3-methoxypropyl)-1H-indazol-7-yl]-7-(4,4-difluorocyclohexyl)-5-[(3-methoxyazetidin-1-yl)methyl]-4-oxo-3H,4H-pyrido[2,3-d]pyrimidin-2-yl]-2-(3,5-difluorophenyl)ethyl]-2-[(2S,4R)-9-(difluoromethyl)-5,5-difluoro-7,8-diazatricyclo[4.3.0.0^2,^4]nona-1(6),8-dien-7-yl]acetamide], for which the CC50 at 4 days in data set [1] was more than 20000 pM. For the same compound, the EC50 in data set [2] worked out at 11 pM.

In the case of `COCCCn1nc(NS(C)(=O)=O)c2c(Cl)ccc(-n3c([C@H](Cc4cc(F)cc(F)c4)NC(=O)Cn4nc(C(F)F)c5c4C(F)(F)[C@@H]4C[C@H]54)nc4nc(C5CCC(F)(F)CC5)cc(CN5CC(C(F)(F)F)C5)c4c3=O)c21` (atropisomer, axis not shown; (P)) [Example 605, N-[(1S)-1-[(3P)-3-[4-chloro-3-methanesulfonamido-1-(3-methoxypropyl)-1H-indazol-7-yl]-7-(4,4-difluorocyclohexyl)-4-oxo-5-{[3-(trifluoromethyl)azetidin-1-yl]methyl}-3H,4H-pyrido[2,3-d]pyrimidin-2-yl]-2-(3,5-difluorophenyl)ethyl]-2-[(2S,4R)-9-(difluoromethyl)-5,5-difluoro-7,8-diazatricyclo[4.3.0.0^2,^4]nona-1(6),8-dien-7-yl]acetamide], the CC50 at 4 days in data set [1] was more than 20000 pM. Further, the EC50 in data set [2] worked out at 18 pM.

With `COCCCn1nc(NS(C)(=O)=O)c2c(Cl)ccc(-n3c([C@H](Cc4cc(F)cc(F)c4)NC(=O)Cn4nc(C(F)F)c5c4C(F)(F)[C@@H]4C[C@H]54)nc4nc(C5CCC(F)(F)CC5)ccc4c3=O)c21` (atropisomer, axis not shown; (P)) [Example 623, N-[(1S)-1-[(3P)-3-[4-chloro-3-methanesulfonamido-1-(3-methoxypropyl)-1H-indazol-7-yl]-7-(4,4-difluorocyclohexyl)-4-oxo-3H,4H-pyrido[2,3-d]pyrimidin-2-yl]-2-(3,5-difluorophenyl)ethyl]-2-[(2S,4R)-9-(difluoromethyl)-5,5-difluoro-7,8-diazatricyclo[4.3.0.0^2,^4]nona-1(6),8-dien-7-yl]acetamide], the CC50 at 4 days in data set [1] was more than 100000 pM. Besides, the EC50 in data set [2] came to 12 pM.

In the case of `CCc1cc(C2CCC(F)(F)CC2)nc2nc([C@H](Cc3cc(F)cc(F)c3)NC(=O)Cn3nc(C(F)F)c4c3C(F)(F)[C@@H]3C[C@H]43)n(-c3ccc(Cl)c4c(NS(C)(=O)=O)nn(CCOC)c34)c(=O)c12` (atropisomer, axis not shown; (P)) [Example 632, N-[(1S)-1-[(3P)-3-[4-chloro-3-methanesulfonamido-1-(2-methoxyethyl)-1H-indazol-7-yl]-7-(4,4-difluorocyclohexyl)-5-ethyl-4-oxo-3H,4H-pyrido[2,3-d]pyrimidin-2-yl]-2-(3,5-difluorophenyl)ethyl]-2-[(2S,4R)-9-(difluoromethyl)-5,5-difluoro-7,8-diazatricyclo[4.3.0.0^2,^4]nona-1(6),8-dien-7-yl]acetamide], the CC50 at 4 days in data set [1] was more than 50000 pM. Further, in data set [2], the EC50 is 21 pM.

The values are drawn from patent US12594276B2, “Inhibitors of human immunodeficiency virus replication” (ViiV Healthcare UK (No.5) Limited, priority 2024, dated 2026).
